The values that follow come from patent publication US12692261B2, “Substituted heterocyclic compounds and therapeutic uses thereof” (Bayer Aktiengesellschaft, priority 2020, dated 2026).

SMILES strings stand for the structures. Where two headings read alike, the source gives them in different places. Where only a bound is given, the exact number is not on record here.

Holding throughout (assay type): biochemical
The target in test [1] is T1, full-length human CSNK1A1 (Homo sapiens, UniProt P48729).
T1 construct: N-terminal Glutathion-S-Transferase (GST) and full-length human CSNK1A1; purchased Life Technologies PV4174; host or cells: baculovirus infected insect cells
In words: CSNK1A1 High ATP Assay (ADP-Glo, 1 mM ATP).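 Also: 30 min kinase reaction at 22 °C with 100 µM peptide substrate.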 The note with it: Table 3, read-out: CSNK1A1 high ATP assay IC50 [mol/l] (median). As for the experimental part:
CSNK1A1-inhibitory activity of compounds of the present invention in presence of 1 mM adenosine-tri-phosphate (ATP) was quantified employing the CSNK1A1-high-ATP-assay as described in the following paragraphs. In essence, the enzyme activity is measured by quantification of the adenosine-di-phosphate (ADP), which is generated as a co-product of the enzyme reaction, via the “ADP-Glo™ Kinase Assay” kit from the company Promega. This detection system works as follows: In a first step the ATP not consumed in the kinase reaction is quantitatively converted to cAMP employing an adenylate cyclase (“ADP-Glo-reagent”), then the adenylate cyclase is stopped and the ADP generated in the kinase reaction converted to ATP which generates in a luciferase-based reaction a glow-luminescence signal (“Kinase Detection Reagent”).
(§1) Recombinant fusion protein of N-terminal Glutathion-S-Transferase (GST) and full-length human CSNK1A1, expressed by baculovirus infected insect cells and purified via Glutathion affinity chromatography, was purchased from Life Technologies (product no. PV4174) and used as enzyme. As substrate for the kinase reaction the biotinylated peptide biotin-Ahx-KRRRAL-pS-VASLPGL (C-terminus in amide form) was used which can be purchased e.g. from the company Biosyntan (Berlin-Buch, Germany).
For the assay 50 nl of a 100 fold concentrated solution of the test compound in DMSO was pipetted into a white low volume 384-well microtiter plate (Greiner Bio-One, Frickenhausen, Germany), 2 μL of a solution of CSNK1A1 in aqueous assay buffer [50 mM HEPES pH 7.5, 10% (v/v) glycerol, 10 mM MgCl2, 50 mM NaCl, 1 mM dithiothreitol, 0.01% (w/v) bovine serum albumin, 0.01% (v/v) Triton X-100] were added and the mixture was incubated for 15 min at 22° C. to allow pre-binding of the test compounds to the enzyme before the start of the kinase reaction. […] The concentration of CSNK1A1 was adjusted depending of the activity of the enzyme lot and was chosen appropriate to have the assay in the linear range, a typical concentration is about 0.4 ng/μL. The reaction was stopped by the addition of 2.5 μL of “ADP-Glo-reagent” (1:1.5 fold diluted with water) and the resulting mixture was incubated at 22° C. for 1 h to convert the ATP not consumed in the kinase reaction completely […]. Subsequently 2.5 μL of the “kinase detection reagent” (1.2 fold more concentrated than recommended by the producer) were added, the resulting mixture was incubated at 22° C. for 1 h and then the luminescence measured with a suitable measurement instrument (e.g. Viewlux™ from Perkin-Elmer). The amount of emitted light was taken as a measure for the amount of ADP generated and thereby for the activity of the CSNK1A1.
Background: ADP-Glo first removes unused ATP, then detects ADP through luciferase.

Test [2] concerns the target T2, wild-type Epidermal Growth Factor Receptor (EGFR) (Homo sapiens, UniProt P00533).
T2 construct: a fragment of human EGFR (amino acids R669 to A1210); made in house; host or cells: Sf9 insect cells
In words: WT-EGFR Kinase Assay (TR-FRET, 2 mM ATP). An excerpt:
Inhibitory activity of compounds of the present invention against wild-type Epidermal Growth Factor Receptor (EGFR) was quantified employing the TR-FRET based EGFR assay as described in the following paragraphs.
Recombinant fusion protein of N-terminal Glutathion-S-Transferase (GST) and a fragment of human EGFR (amino acids R669 to A1210), expressed in Sf9 insect cells and purified via affinity chromatography using Glutathion Sepharose as described above, was used as kinase. As substrate for the kinase reaction the biotinylated peptide biotin-Ahx-[…] (C-terminus in amide form) was used which can be purchased e.g. form the company Biosynthan GmbH (Berlin-Buch, Germany).
For the assay 50 nl of a 100 fold concentrated solution of the test compound in DMSO was pipetted into either a black low volume 384 well microtiter plate or a black 1536 well microtiter plate (both Greiner Bio-One, Frickenhausen, Germany), 2 μL of a solution of EGFR in aqueous assay buffer [50 mM Hepes pH 7.0, 10 mM MgCl2, 1 mM dithiothreitol, 0.5 mM EGTA, 0.3 mM activated sodium ortho-vanadate, 0.005% (w/v) bovine serum albumin, 0.005% (v/v) Tween-20] were added and the mixture was incubated for 15 min at 22° C. to allow pre-binding of the test compounds to the enzyme before the start of the kinase reaction. […] The concentration of EGFR was adjusted depending of the activity of the enzyme lot and was chosen appropriate to have the assay in the linear range, typical concentration was 7.6 pg/μL. The reaction was stopped by the addition of 3 μL of a solution of HTRF detection reagents (83.3 nM streptavidine-XL665 [Cisbio Bioassays, Codolet, France] and 1.67 nM PT66-Tb-Cryptate, a terbium-cryptate labelled anti-phospho-tyrosine antibody from Cisbio Bioassays [instead of the PT66-Tb-cryptate PT66-Eu-Chelate from Perkin Elmer can also be used]) in an aqueous EDTA-solution (133.3 mM EDTA, 0.2% (w/v) bovine serum albumin in 50 mM HEPES pH 7.5).
The resulting mixture was incubated 1 h at 22° C. to allow the binding of the biotinylated phosphorylated peptide to the streptavidine-XL665 and the PT66-Tb-Cryptate. Subsequently the amount of phosphorylated substrate was evaluated by measurement of the resonance energy transfer from the PT66-Tb-Cryptate to the streptavidine-XL665. Therefore, the fluorescence emissions at 620 nm and 665 nm after excitation at 337 nm were measured in a HTRF reader, e.g. a Pherastar (BMG Labtechnologies, Offenburg, Germany) or a Viewlux (Perkin-Elmer). The ratio of the emissions at 665 nm and at 622 nm was taken as the measure for the amount of phosphorylated substrate.

The target in test [3] is T1, full-length human CSNK1A1. In words: CSNK1A1 Assay 2 (ADP-Glo, 1 μM ATP, substrate biotin-Ahx-KRRRAL-pS-VASLPGL). The note with it: Table 3, read-out: CSNK1A1 Assay 2 IC50 [mol/l] (median). As for the experimental part: CSNK1A1-inhibitory activity of compounds of the present invention in presence of 1 μM adenosine-tri-phosphate (ATP) was quantified employing the CSNK1A1 assay as described in the following paragraphs. In essence, the enzyme activity is measured by quantification of the adenosine-di-phosphate (ADP), which is generated as a co-product of the enzyme reaction, via the “ADP-Glo™ Kinase Assay” kit from the company Promega. This detection system works as follows: In a first step the ATP not consumed in the kinase reaction is quantitatively converted to cAMP employing an adenylate cyclase (“ADP-Glo-reagent”), then the adenylate cyclase is stopped and the ADP generated in the kinase reaction converted to ATP which generates in a luciferase-based reaction a glow-luminescence signal (“Kinase Detection Reagent”).
as §1
For the assay 50 nl of a 100 fold concentrated solution of the test compound in DMSO was pipetted into a white 1536-well microtiter plate (Greiner Bio-One, Frickenhausen, Germany), 2 μL of a solution of CSNK1A1 in aqueous assay buffer [50 mM HEPES pH 7.5, 10% (v/v) glycerol, 10 mM MgCl2, 50 mM NaCl, 1 mM dithiothreitol, 0.01% (w/v) bovine serum albumin, 0.01% (v/v) Triton X-100] were added and the mixture was incubated for 15 min at 22° C. to allow pre-binding of the test compounds to the enzyme before the start of the kinase reaction. […] The concentration of CSNK1A1 was adjusted depending of the activity of the enzyme lot and was chosen appropriate to have the assay in the linear range, a typical concentrations are about 0.0375 ng/μL. The reaction was stopped by the addition of 2.5 μL of “ADP-Glo-reagent” (1:1.5 fold diluted with water) and the resulting mixture was incubated at 22° C. for 1 h to convert the ATP not consumed in the kinase reaction completely […]. Subsequently 2.5 μL of the “kinase detection reagent” (1.2 fold more concentrated than recommended by the producer) were added, the resulting mixture was incubated at 22° C. for 1 h and then the luminescence measured with a suitable measurement instrument (e.g. Viewlux™ from Perkin-Elmer). The amount of emitted light was taken as a measure for the amount of ADP generated and thereby for the activity of the CSNK1A1.

Where [4] appears, read: EGFR Wildtyp 2 mM ATP IC50 [mol/l] (median), Table 4.

T1 sequence (P48729 whole entry): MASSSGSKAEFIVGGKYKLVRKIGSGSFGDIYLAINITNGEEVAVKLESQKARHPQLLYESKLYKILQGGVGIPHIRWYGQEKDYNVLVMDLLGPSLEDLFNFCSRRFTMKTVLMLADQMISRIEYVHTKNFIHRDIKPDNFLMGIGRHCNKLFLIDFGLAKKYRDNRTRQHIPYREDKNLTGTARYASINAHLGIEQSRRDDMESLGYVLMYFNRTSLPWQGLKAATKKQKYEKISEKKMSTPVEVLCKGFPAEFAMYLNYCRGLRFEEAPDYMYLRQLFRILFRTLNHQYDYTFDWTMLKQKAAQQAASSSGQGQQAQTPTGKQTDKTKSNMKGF
T2 sequence (P00533 669-1210): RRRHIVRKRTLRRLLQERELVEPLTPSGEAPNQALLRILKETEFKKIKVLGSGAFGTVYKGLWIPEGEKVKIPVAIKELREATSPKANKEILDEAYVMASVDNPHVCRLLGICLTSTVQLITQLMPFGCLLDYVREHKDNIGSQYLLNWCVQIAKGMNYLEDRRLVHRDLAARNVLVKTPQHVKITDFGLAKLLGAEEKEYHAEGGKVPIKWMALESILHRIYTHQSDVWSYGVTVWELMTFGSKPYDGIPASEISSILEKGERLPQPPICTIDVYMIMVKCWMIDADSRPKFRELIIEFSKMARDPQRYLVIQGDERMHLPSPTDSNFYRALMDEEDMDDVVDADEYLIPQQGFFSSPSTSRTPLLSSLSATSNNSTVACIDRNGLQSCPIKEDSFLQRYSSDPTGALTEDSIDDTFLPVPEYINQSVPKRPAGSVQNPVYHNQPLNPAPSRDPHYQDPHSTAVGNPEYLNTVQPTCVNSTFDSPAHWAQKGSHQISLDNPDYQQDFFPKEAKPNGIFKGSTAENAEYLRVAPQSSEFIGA

As to `O=C(Nc1cc(-c2[nH]c3c(OCC(F)F)ccnc3c2-c2ccccn2)ccn1)C(CC(F)F)c1ccc(F)cc1` (racemic) [Example 75, (2RS)—N-{4-[7-(2,2-difluoroethoxy)-3-(pyridin-2-yl)-1H-pyrrolo[3,2-b]pyridin-2-yl]pyridin-2-yl}-4,4-difluoro-2-(4-fluorophenyl)butanamide], the IC50 is 4.37 nM in test [1], greater than 20000 nM in test [2] (setting [4]) and 4.37 nM in test [3].
For `O=C(Nc1cc(-c2[nH]c3c(OCC(F)F)ccnc3c2-c2ccccn2)ccn1)C(CC(F)F)c1ccc(F)cc1` (single isomer, unassigned) [Example 76, (2R or S)—N-{4-[7-(2,2-difluoroethoxy)-3-(pyridin-2-yl)-1H-pyrrolo[3,2-b]pyridin-2-yl]pyridin-2-yl}-4,4-difluoro-2-(4-fluorophenyl)butanamide], the IC50 in test [1] was 2.94 nM; in test [2] (setting [4]), greater than 20000 nM; in test [3], 2.94 nM.
For the compound `O=C(Nc1cc(-c2[nH]c3c(OCC(F)F)ccnc3c2-c2ccccn2)ccn1)C(CC(F)F)c1ccc(F)cc1` (single isomer, unassigned) [Example 77, (2R or S)—N-{4-[7-(2,2-difluoroethoxy)-3-(pyridin-2-yl)-1H-pyrrolo[3,2-b]pyridin-2-yl]pyridin-2-yl}-4,4-difluoro-2-(4-fluorophenyl)butanamide], the IC50 in test [1] was 7.2 nM; in test [2] (read-out: EGFR Wildtyp 2 mM ATP IC50 [mol/l] (median), Table 4), greater than 20000 nM; in test [3], 7.2 nM.
